This note sets out measurements from patent US11458138B2 (Novartis AG, priority 2017, dated 2022).

The term EC50 denotes the concentration needed to bring the measured effect to its halfway point. Read a high EC50 as lower potency in that assay. What is called IC50 is the concentration needed to halve the response being measured.

Assay [1] concerns limbal stem cells (LSCs). The assay is described as follows: Differentiation of expanded LSCs into corneal epithelium cells (p63alpha / keratin 12). Format: cell-based, human. As to conditions: transferred to conditions that enable differentiation. An excerpt: Shown are views where the transition from the p63alpha-positive cell identity to the keratin-12 identity are occurring.
These characteristics can be observed by immunohistochemistry or FACS.

Assay [2] relates to corneal endothelium cell population. The experiment in a line: FACS analysis of expanded corneal endothelium cell population (CD73, CD44, CD166, CD105). Format: cell-based, human. The following applies: vs CECs cultured without LATS inhibitor (high levels). The source says: FIG. 21: FACS analysis of the corneal endothlelium cell population expanded in the presence of the LATS inhibitor, compound ex. 47, and CECs cultured in the absence of a LATS inhibitor. The cell population expanded in the presence of the LATS inhibitor expresses low levels of CD73 (FIG. 21a, grey line), CD44 (FIG. 21b, grey line), CD166 (FIG. 21c, grey line) and CD105 (FIG. 21d, grey line); while the cell population cultured without the LATS inhibitor expresses high levels of CD44, CD73, CD105 and CD166 (black lines).
(4) The cells express relatively low levels of CD73. The relative expression levels are lower than cells which have undergone endothelial to mesenchymal transition. The expression of CD73 may be estimated by standard techniques known in the art, such as for example FACS analysis or immunohistochemistry.

Assay [3] has as its system Cyr61 mRNA in liver. The experiment in a line: In vivo treatment of mice: quantitative RT-PCR, Cyr61. As to conditions: mouse liver, single oral dose 30 mg/kg, 2 h post-dose, relative to vehicle, mean+/-SEM. On the procedure:
(§1) All animal studies were carried out in accordance with federal, state, local and institutional guidelines governing the use of laboratory animals in research. Male C57BL/6J mice (age 8-10 weeks) were purchased from Jackson Labs (Bar Harbor, Me.). Example 46 was formulated for oral dosing at 3 mg/ml, and Example 261 at 1 mg/ml, in a suspension of methylcellulose:Tween80:Water (0.5:0.5:99). Single oral dose of either compound was at 10 mL/kg body weight. Blood and liver tissue were collected under deep anesthesia (isoflurane) at either 2 h post-dose (for mRNA analysis) or 24 h post-dose (for immunohistochemistry).
(§2) Total liver RNA was isolated from tissue after storage in RNAlater reagent (Qiagen), using a TRIzol method according to the manufacturer's instructions (Life Technologies). Relative mRNA abundance was measured by quantitative RT-PCR using TaqMan gene expression assays and reagents according to standard protocols (Applied Biosystems). Mouse probes for YAP target genes were CTGF (Mm01192933_g1) and Cyr61 (Mm00487498_m1). […] Relative changes in mRNA were calculated by the ΔΔCt method. Changes in gene expression with compound treatment are expressed as fold-change relative to the vehicle group.

For assay [4], the system named is CTGF mRNA in liver. The experiment in a line: In vivo treatment of mice: quantitative RT-PCR, CTGF. As to conditions: mouse liver, single oral dose 30 mg/kg, 2 h post-dose, relative to vehicle, mean+/-SEM. Here is the method:
as §1, §2

Assay [5] has as its system YAP nuclear translocation in HaCaT cells. The experiment in a line: YAP Translocation Assay (HaCaT Cells). It is filed as cell-based, human. The following applies: Homo sapiens, 24 hours. In a few lines:
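HaCaT cells (20,000/well) in DMEM + 10% FBS were plated overnight at 37° C, then exposed to compound for 24 h at 37° C. Cells were fixed with PFA, permeabilized with 0.1% Triton/1.5% BSA and imaged by high-content imaging.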

Assay [6] has as its system Phospho-YAP (SER127) in liver tissue. The experiment in a line: In vivo treatment of mice: Phospho-YAP (pYAP) HTRF in liver tissue. The following applies: mouse liver, single oral dose 30 mg/kg. Here is the method:
as §1
Frozen liver tissue was transferred into a Lysing Matrix tube (MP, cat #6913-500) with a 1:50 solution of Protease inhibitor (Sigma-Aldrich, cat #P8340) in Phosphosafe extraction buffer (Novagen, cat #71296-3) and homogenized using the FastPrep-24 (MP biomedicals). […] The protein concentration was measured using the BCA Protein Assay Kit (Pierce cat. 23227) following the manufacturer's protocol. […] The same input quantity was used for each sample, based on total protein content (30-60 ug per sample per well). […] Plates were read on an EnVision (PerkinElmer) with emission wavelengths of 665 nm & 620 nm. The HTRF signal ratio was calculated as Signal(665 nm)/Signal(620 nm))×10000 as specified in the manufacturer's protocol. […]
(In general: Time-resolved FRET reads energy transfer from a long-lived donor to a nearby acceptor.)

For assay [7], the target named is LATS1 (Homo sapiens (Human), UniProt O95835). The assay is described as follows: LATS1 biochemical assay (Table 1A, Compound Examples 1-290; method in the earlier part).
Sequence of LATS1 (O95835 whole entry, looked up): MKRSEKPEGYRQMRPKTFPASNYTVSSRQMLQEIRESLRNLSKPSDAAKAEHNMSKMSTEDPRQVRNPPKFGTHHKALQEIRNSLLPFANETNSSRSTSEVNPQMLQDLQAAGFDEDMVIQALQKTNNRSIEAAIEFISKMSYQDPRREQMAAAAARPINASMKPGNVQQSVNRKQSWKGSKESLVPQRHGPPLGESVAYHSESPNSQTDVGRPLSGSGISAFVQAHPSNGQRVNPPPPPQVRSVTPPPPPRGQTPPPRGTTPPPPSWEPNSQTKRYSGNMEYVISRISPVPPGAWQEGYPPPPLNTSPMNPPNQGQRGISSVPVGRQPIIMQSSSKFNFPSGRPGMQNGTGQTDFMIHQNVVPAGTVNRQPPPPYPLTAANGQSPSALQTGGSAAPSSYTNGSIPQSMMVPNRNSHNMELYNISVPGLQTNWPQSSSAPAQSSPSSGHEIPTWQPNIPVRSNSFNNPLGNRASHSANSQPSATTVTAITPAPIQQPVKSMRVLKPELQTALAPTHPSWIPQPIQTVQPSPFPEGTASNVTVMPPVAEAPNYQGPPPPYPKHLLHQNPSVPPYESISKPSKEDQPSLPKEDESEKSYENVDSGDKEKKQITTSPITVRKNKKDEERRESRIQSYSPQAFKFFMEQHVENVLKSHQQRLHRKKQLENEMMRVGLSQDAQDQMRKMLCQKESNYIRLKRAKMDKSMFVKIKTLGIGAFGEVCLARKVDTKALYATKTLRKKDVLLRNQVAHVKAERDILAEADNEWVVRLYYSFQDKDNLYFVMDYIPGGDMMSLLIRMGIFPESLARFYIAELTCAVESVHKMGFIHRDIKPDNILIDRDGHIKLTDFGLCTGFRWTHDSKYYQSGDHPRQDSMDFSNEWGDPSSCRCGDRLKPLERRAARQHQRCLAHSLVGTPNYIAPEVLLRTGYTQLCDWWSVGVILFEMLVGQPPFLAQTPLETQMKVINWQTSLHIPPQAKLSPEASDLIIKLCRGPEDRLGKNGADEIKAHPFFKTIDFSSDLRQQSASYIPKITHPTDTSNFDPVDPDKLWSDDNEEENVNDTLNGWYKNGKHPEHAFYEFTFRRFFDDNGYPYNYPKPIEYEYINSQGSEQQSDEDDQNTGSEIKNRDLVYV
Sequence of LATS1 (Q7L9L4 whole entry partner, looked up): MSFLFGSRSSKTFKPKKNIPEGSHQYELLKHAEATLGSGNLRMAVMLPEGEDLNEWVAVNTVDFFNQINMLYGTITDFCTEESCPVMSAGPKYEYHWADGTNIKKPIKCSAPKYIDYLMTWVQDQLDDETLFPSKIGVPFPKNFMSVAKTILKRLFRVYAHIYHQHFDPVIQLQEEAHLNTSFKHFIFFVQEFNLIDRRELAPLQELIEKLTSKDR
Assay [8] concerns Ki67-positive hepatocytes. The experiment in a line: In vivo treatment of mice: immunohistochemistry (IHC) for Ki67 in liver. As to conditions: mouse liver, single oral dose 30 mg/kg, 24 h post-dose, relative to vehicle, mean+/-SEM. On the procedure: as §1
Liver tissue was fixed in 10% neutral buffered formalin for 24-48 h. Processing and embedding in paraffin was by standard procedures. Sections were cut at 5 microns thickness and stained using a Ventana automated system. Primary antibody for mouse Ki67 was a rabbit IgG (Bethyl Labs). Ki67-positive hepatocytes were quantified by image analysis using the HALO platform. At least 3 sections per animal were analyzed, from the middle of the medial lobe.

SMILES strings stand for the structures. Where only a bound is given, the exact number is not on record here.

As to `CC(N(C)c1nc(-c2ccncc2)nc2cnccc12)C(F)(F)F` (racemic) [Example 47, N-methyl-2-(pyridin-4-yl)-N-(1,1,1-trifluoropropan-2-yl)pyrido[3,4-d]pyrimidin-4-amine], the “differentiation of expanded LSCs into corneal epithelium cells (keratin 12)” value in assay [1] is on record as “can differentiate into corneal epithelium cells”. For the same molecule, in assay [2], the “expression of CD73, CD44, CD166 and CD105 by FACS” value is given as “low levels”.

For `c1cc(-c2nc(NCCCc3nnn[nH]3)c3ccncc3n2)ccn1` [Example 46, 2-(pyridin-4-yl)-N-[3-(1H-1,2,3,4-tetrazol-5-yl)propyl]pyrido[3,4-d]pyrimidin-4-amine], the “Cyr61 mRNA (fold-change)” value in assay [3] is reported as 3.5 (+/−0.5) fold-change. In assay [4], the “CTGF mRNA (fold-change)” value is 2.1 (+/−0.4) fold-change. The same molecule had an EC50 in assay [5] of over 20 µM. The “pYAP (% of control)” value in assay [6] is recorded as 64 % of control. For the same molecule, the IC50 in assay [7] was over 2.5 µM. In assay [8], the “Ki67 IHC (fold-change)” value is given as 3.3 (+/−0.2) fold-change.
